US11384379B2, “Method for producing a protein and disaccharide using a Talaromyces cellulolyticus” (AJINOMOTO CO., INC., priority 2017, dated 2022)

Columns and labels:
[1] = tested on: T. cellulolyticus strains F09pyr+ and F09Δgh1-2; experiment: Halo assay for secretory cellulase by various beta-linked glucose oligosaccharides (CMC minimal medium, Congo Red); format: cell-based, Talaromyces cellulolyticus; conditions: 30° C. for 36 hours
Method: The strains F09pyr+ and F09Δgh1-2 were each grown on the minimal medium containing glucose as the carbon source for 3 days. […] After the culture, a Congo Red solution obtained by mixing 50 mM sodium phosphate buffer (pH 7.0) and 2 mg/ml Congo Red (Nacalai Tesque) in a volume ratio of 10:1 was added to the plate so that the Congo Red solution covered the entire plate, and the plate was left to stand for 30 minutes at a room temperature. Then, the Congo Red solution on the plate was removed, and sodium phosphate buffer (50 mM, pH 7.0) was added to the plate so that the sodium phosphate buffer covered the entire plate. The plate was again left to stand for 30 minutes at a room temperature. Then, the sodium phosphate buffer on the plate was removed, the surface of the plate was dried lightly, and observation of halo was carried out.

[2] = tested on: T. cellulolyticus strains Y-94, W363Frep, W449Frep, and C267Prep; experiment: Halo assay of strains Y-94, W363Frep, W449Frep, C267Prep with or without gentiobiose; format: cell-based, Talaromyces cellulolyticus; conditions: 1 mM gentiobiose in combination with W363F, W449F or C267P mutation in the gh1-2 gene; 5 days
Method: (§1) The strains Y-94, W363Frep, W449Frep, and C267Prep were each grown on the minimal medium containing CMC as the carbon source and on the minimal medium containing CMC as the carbon source and 1 mM gentiobiosefor 5 days according to the procedure described in Example (1-4). After the culture, a Congo Red solution obtained by mixing 50 mM sodium phosphate buffer (pH 7.0) and 2 mg/ml Congo Red (Nacalai Tesque) in a volume ratio of 10:1 was added to the plate so that the Congo Red solution covered the whole of the plate, and the plate was left to stand for 30 minutes at a room temperature. Then, the Congo Red solution on the plate was removed, and sodium phosphate buffer (50 mM, pH 7.0) was added to the plate so that the sodium phosphate buffer covered the whole of the plate. The plate was again left to stand for 30 minutes at a room temperature. Then, the sodium phosphate buffer on the plate was removed, the surface of the plate was dried lightly, and the diameter and width of the visualized halo were measured.

[3] = tested on: T. cellulolyticus strain F09ΔcreA; experiment: Cellulase production fed-batch culture using gentiobiose, filter paper degradation activity; format: cell-based, Talaromyces cellulolyticus; conditions: carbon source other than glucose in the feed solution, compared with cellobiose; 72 hours
Method: The T. cellulolyticus strains F09ΔcreA and F09Δgh1-2ΔcreA were each inoculated into PD medium, and cultured at 30° C. One agar disk excised from around the edge of a formed colony was inoculated into 20 mL of a liquid culture medium containing 20 g/L glucose, 24 g/L KH2PO4, 5 g/L (NH4)2SO4, 2 g/L Urea, 1.2 g/L MgSO4-7H2O, 0.01 g/L ZnSO4-7H2O, 0.01 g/L MnSO4-5H2O, 0.01 g/L CuSO4-5H2O, 1 g/L Corn steep liquor (C4648, SIGMA), and 1 g/L Tween 80, and gyratory culture (220 rpm) was carried out at 30° C. for 5 days as a pre-culture. […]
The filter paper degradation activity (FPU/ml) of the obtained enzyme solutions was measured according to the following procedure, and the yield of the activity per carbon source was calculated on the basis of the consumption amount of sugar during the cultures by which the respective enzyme solutions were obtained.
To a 100-μl aliquot of a citrate buffer (50 mM, pH 5.0) containing a filter paper (Whatman No. 1, GE Healthcare) cut to 6 mm×10 mm, 50 μl of an appropriately diluted sample were added, and a reaction was carried out at 50° C. for 1 hour. […] Then, the absorbance at 540 nm of the supernatant was measured, and the value of the blank was subtracted therefrom, to calculate an increase in absorbance. […]

[4] = tested on: HSA expressing strain derived from the T. cellulolyticus strain F09ΔyscB; conditions: feeding solution Gentiobiose 80 g/L vs Cellobiose 80 g/L; 45 hours
Method: The HSA expressing strain derived from the T. cellulolyticus strain F09ΔyscB was inoculated into PD medium, and cultured at 30° C. One agar disk excised from around the edge of a formed colony was inoculated into 20 mL of a liquid culture medium containing 20 g/L glucose, 24 g/L KH2PO4, 5 g/L (NH4)2SO4, 2 g/L Urea, 1.2 g/L MgSO4-7H2O, 0.01 g/L ZnSO4-7H2O, 0.01 g/L MnSO4-5H2O, 0.01 g/L CuSO4-5H2O, 1 g/L Corn steep liquor (C4648, SIGMA), and 1 g/L Tween 80, and gyratory culture (220 rpm) was carried out at 30° C. for 5 days as a pre-culture. Then, 15 mL of the pre-culture broth was inoculated into 300 mL of a liquid culture medium containing 15 g/L glucose, 12 g/L KH2PO4, 10 g/L (NH4)2SO4, 1.2 g/L MgSO4-7H2O, 0.01 g/L ZnSO4-7H2O, 0.01 g/L MnSO4-5H2O, 0.01 g/L CuSO4-5H2O, 5 g/L Corn steep liquor, 1 g/L Tween 80, and 0.5 mL/L DISFOAM GD (NOF CORPORATION) in a jar fermenter, and fed-batch culture was carried out for 45 hours at a culture temperature of 30° C. and an aeration volume of 1/2 vvm, while controlling the dissolved oxygen concentration to be 5% or higher of the saturated oxygen concentration by stirring and controlling the pH to be 5 with using ammonia gas. […]
HSA was quantified by ELISA using Albumin ELISA Quantitation Kit, Human (Bethyl Laboratories, inc.).

[5] = tested on: T. cellulolyticus strains F09pyrF+, F09Δgh1-2, F09Δbgl3A, and F09Δgh1-2Δbgl3A; experiment: Plate halo assay of double deficient strain of GH1-2 and BGL3A with or without gentiobiose; format: cell-based, Talaromyces cellulolyticus; conditions: 1 mM gentiobiose in combination with double disruption of the gh1-2 gene and the bgl3A gene; 5 days
Method: as §1, with “F09pyrF+” for “Y-94, W363Frep, W449Frep,”, “F09Δgh1-2 constructed in Example (1-1), the strain F09Δbgl3A constructed in Example (5-1), and the strain F09Δgh1-2Δbgl3A constructed in Example (7-1)” for “C267Prep”

[6] = Generation of gentiobiose from cellulosic substrate/glucose by culture supernatant containing BGL3A; format: biochemical; conditions: enzyme solution, no cellulosic substrate added, glucose 0-14.4 wt %, 50° C. for 24 hours
Method: (§2) The strains F09Δbgl3A and F09pyr+ were each inoculated into a 1/2 PDA plate, and cultured at 30° C. for 3 days. […] Sampling was appropriately carried out, cells were removed using a 0.22 μm syringe filter, and the obtained culture supernatant was used as an enzyme solution. Thereby, an enzyme solution derived from the strain F09Δbgl3A not containing BGL3A (hereinafter, also referred to as “-BGL3A”) and an enzyme solution derived from the strain F09pyr+ containing BGL3A (hereinafter, also referred to as “+BGL3A”) were prepared.
The reaction was carried out by placing 10 g of the reaction solution (Table 5) in a 50-ml tube and shaking the tube at 90 rpm at 50° C. for 24 hours.

[7] = Generation of gentiobiose from cellobiose by culture supernatant containing BGL3A; format: biochemical; conditions: enzyme solution, 50° C. for 24 hours
Method: as §2
The two enzyme solutions obtained in Example (5-2) were used to degrade cellobiose, which is a decomposition product of a cellulosic substrate, under conditions of containing a certain concentration of glucose, and the product was analyzed. The reaction was carried out by placing 10 g of the reaction solution (Table 6) in a 50-ml tube and shaking the tube at 90 rpm at 50° C. for 24 hours.

[8] = Reaction of GH1-2s with cellobiose, products by TLC and ion exchange chromatography; format: biochemical; conditions: 30 μg/mL enzyme, 2% cellobiose aqueous solution, 40° C. for 1 to 60 minutes
Method: The purified GH1-2 was added to a 2% cellobiose aqueous solution at a concentration of 30 μg/mL, and a reaction solution after reaction at 40° C. for 1 to 60 minutes was used as a sample solution. The sample solution in 3 μL portions was spotted and developed on a thin layer chromatography plate (Merck) having a silica layer having a thickness of 200 μm, a size of 20×20 cm, and an average pore diameter of 60 angstroms. The composition of the developing solvent was chloroform:methanol:pure water=30:20:5 by volume ratio. An aniline phthalate method for detecting a reducing group was used for color development detection. […]
(§3) The reaction mixture obtained by using the wild-type GH1-2 was subject to ion exchange chromatography under the conditions described in Example (2-2), and the reaction product was analyzed, and observation of the hydrolysis product and the transglycosylation product was carried out over time. […]
as §3, with “Similarly, the” for “The”, “W363F mutant” for “wild-type”, “(2-2),” for “(2-2), and”, “time, and the result was compared with that observed when using the wild-type GH1-2 was observed.” for “time.”

[9] = Reaction of purified GH1-2 with high-concentration glucose, products by ion-exchange chromatography; format: biochemical; conditions: 1.4 g/L enzyme
Method: The purified GH1-2 was added to a 40% glucose aqueous solution at a concentration of 1.4 g/L, and reaction was carried out at 40° C. for 24 hours, to thereby obtain a sample. This sample was diluted 1000-fold with ion-exchanged water, and subjected to ion-exchange chromatography, to thereby analyze the reaction product. As a result, generation of beta-linked glucose oligosaccharides such as gentiobiose by GH1-2 was confirmed (FIG. 4).
The purified GH1-2 obtained in Example (2-1) was added to a 560 g/L glucose solution at a concentration of 1.4 g/L, to thereby obtain a reaction mixture. The reaction mixture was stirred so as to be uniform, and then left to stand at a room temperature for 52 hours. Then, the reaction mixture was heated at 95° C. for 10 minutes, to thereby obtain a saccharide solution containing gentiobiose. It was confirmed by the ion-exchange chromatography mentioned above that the saccharide solution contains 35.04 g/L gentiobiose.

With `O=C[C@H](O)[C@@H](O)[C@H](O[C@@H]1O[C@H](CO)[C@@H](O)[C@H](O)[C@H]1O)[C@H](O)CO` [cellobiose, reference compound] the “complementation of the decrease in the ability for secretory production of cellulase due to deletion of the gh1-2 gene (halo)” value (“complementation of the decrease” below) ([1]; 1 mM in CMC minimal medium) was “scarcely able to complement the decrease in the ability for secretory production of cellulase”.

In the case of gentiobiose, the “secretory production of cellulase (diameter and width of degradation halo)” value [2] is reported as “secretory production of cellulase is synergistically improved”, the “efficiency of cellulase production (filter paper degradation activity, yield per carbon source)” value [3] is reported as “cellulase production with higher efficiency” and the “secretory production amount of HSA” value [4] is reported as “greater in the case of feeding gentiobiose than in the case of feeding cellobiose”. For the same molecule, the “secretory production of cellulase (width of degradation halo)” value [5] was “secretory production of cellulase is synergistically improved”, the “complementation of the decrease” value ([1]; 0.01 mM in CMC minimal medium) was “complemented the decrease in the ability for secretory production of cellulase more strongly than other beta-linked glucose oligosaccharides” and the “complementation of the decrease” value ([1]; 1 mM in CMC minimal medium) was “strongly complements the decrease in the ability for secretory production of cellulase”.

B1: BGL3A: major extracellular-secretion type beta-glucosidase of T. cellulolyticus (SEQ ID NO: 38), tested as culture supernatant of strain F09pyr+ (protein, listed as Talaromyces cellulolyticus)
chain: MYSAFLLLLASATPIVSAQSASWSAAYSKATAALSKLSQNDKIGMVTGVGWGKGPCVGNTAAPSGISFPSLCIQDSPLGVRYANPVTAFPAGTNAGMTWDRTLMNQRGAALGAESKGLGVHVQLGPVAGPLGKIAQGGRGWEGFGTDPYLSGVAMIETISGMQSSGTQACAKHYIGNEQELNRESMSSNIDDRTLHELYLWPFADAVRANVASVMCSYNQINGTFSCENEESMTGILKTELGFPGYIMSDWDAQHTTVTSANSGLDMTMPGSDYSDTPSSVLWGQNLANAISSGQVAQSRLDDMVTRILAAWYLVGQDQGFPAVAFNSWTGGQASVNVTSNHNQVARAVARDSIVLLKNTNSTLPLNKPSSIAIIGTDAQTNPSGPNACTDRGCDTGTLAMGWGSGTCQFPYLTDPLTAIKTRAASDGTTITTSISDNGSAGASVAQSAEYAIVFINSDSGEGYITVEGVAGDRNNLDPWHSGNALVQSVAAVNKKTIVVIHSVGPVILETILAQPNVVAVVWAGIPGQESGSALTDILYGSTAPSGKLTYTIAKQASDYGTAVVSGSDNYPEGLFIDYRHFDKSNIEPRYEFGYGLSYTTFGYTNLAIDITVSTGPTTGQIVPGGPSDLFESVGTVTVQVANTGSVAGSEVAQLYIGLPSSAPSSPPKQLRGFDKLSLAAGASGTATFDLTRRDLSYWDVSKQKWVVPSGAFTVYVGASSRDIRLQGTFTPGGSSTTSTITSSKTSTTISTSVTTSSSTTAKTTTTSSTTSSAGPTQTPYGQCGGQGWTGPTVCSSGWTCKVTNQWYSQCLQ
In the case of B1, the “generation of gentiobiose from glucose” value [6] is reported as “can generate gentiobiose from glucose in a concentration-dependent manner” and the “generation of gentiobiose from cellobiose” value [7] is reported as “can generate gentiobiose from cellobiose”.

B2: GH1-2: beta-glucosidase of T. cellulolyticus (SEQ ID NO: 23), His-tag at the C-terminus, expressed in E. coli and purified (protein, listed as Talaromyces cellulolyticus)
chain: MGSVTSTNGETPQSKLPADFVWGYATASYQIEGAYDEDGRGPSIWDTFSKTPGKVEDGTNGDVACDSYHRTHEDIAILKQYGAKLYRFSLSWPRIIPLGGRNDPINQKGIDFYSKFIDDLHAAGIEPFVTLYHWDLPDELFKRYGGPLNKDEFVADYANFARIAFQSFGHKVKHWVTFNEPWCSSVLGFNIGKHAPGRTSDRKKNPVGDGVREPWIAGHSLLVAHGTAVDIYRKEFKPTQGGEIGITLNGDWAEPWDPEDPEDIEACTRKLEFAISWFADPIYLGKYPDSVVKQIGDRLPPLTPDEVALIKGSNDFYGMNHYCANYIRHREGEADPDDTAGNLDHLFEDKFGNSIGPETNCEWLRPHPLGFRKLLKWLSDRYGYPKIYVTENGTSIKGENDLPLEELLNDEFRVQYYRDYVGAMADAATFDGVNVKKYMAWSLMDNFEWSEGYQSRFGVTYVDYKDNQKRIPKKSALVIGELFNKYISKE
modifications: C-terminal His-tag
In the case of B2, the “activity on cellobiose (reaction products by TLC)” value [8] is reported as “has not only a hydrolysis activity but also has a transglycosylation activity”, the “activity on glucose (generation of beta-linked glucose oligosaccharides such as gentiobiose)” value ([9]; 40% glucose aqueous solution, 40° C. for 24 hours) is reported as “has a transglycosylation activity” and the “gentiobiose contained in the saccharide solution after reaction” value ([9]; 560 g/L glucose solution, room temperature for 52 hours) is reported as 35.04 g/L.
